Measured values taken from US5552427A, “Glutaminase inhibitory compounds, compositions, and methods of use” (Takeda Chemical Industries, Ltd., priority 1993, dated 1996).
Values after ≈ are worked out from the molar mass of the structure shown. Counter-ions that a name gives are not always drawn. Like-named read-outs stand apart in the source and are kept apart here. Each block holds one compound with its values, some of them ahead of it.

Columns and labels:
[1] = test system: human colon carcinoma cells WiDr; test: In vitro cell proliferation inhibitory activity (Table 1), colon carcinoma cells WiDr, MTT; assay type: cell-based; conditions: 72 h, read-out: IC50, Colon carcinoma cells WiDr
[2] = test system: human normal fetal pulmonary fibroblasts HEL; test: In vitro cell proliferation inhibitory activity (Table 1), normal cells HEL, MTT; assay type: cell-based; conditions: Pulmonary fibroblast, 72 h, read-out: IC50, Normal cells HEL
[3] = target: T1, mitochondrial membrane enzyme glutaminase (Homo sapiens, UniProt O94925); test: Inhibitory activity against the mitochondrial membrane enzyme glutaminase (crude enzyme of WiDr cells); assay type: biochemical; conditions: WiDr mitochondrial fraction, tritium-labelled glutamine 0.8 μM, phosphoric acid 200 mM, pH 8.0, 37° C., 15 minutes; read-out: IC50, enzymatic activity of glutaminase
T1 sequence (O94925 73-669 limits assumed): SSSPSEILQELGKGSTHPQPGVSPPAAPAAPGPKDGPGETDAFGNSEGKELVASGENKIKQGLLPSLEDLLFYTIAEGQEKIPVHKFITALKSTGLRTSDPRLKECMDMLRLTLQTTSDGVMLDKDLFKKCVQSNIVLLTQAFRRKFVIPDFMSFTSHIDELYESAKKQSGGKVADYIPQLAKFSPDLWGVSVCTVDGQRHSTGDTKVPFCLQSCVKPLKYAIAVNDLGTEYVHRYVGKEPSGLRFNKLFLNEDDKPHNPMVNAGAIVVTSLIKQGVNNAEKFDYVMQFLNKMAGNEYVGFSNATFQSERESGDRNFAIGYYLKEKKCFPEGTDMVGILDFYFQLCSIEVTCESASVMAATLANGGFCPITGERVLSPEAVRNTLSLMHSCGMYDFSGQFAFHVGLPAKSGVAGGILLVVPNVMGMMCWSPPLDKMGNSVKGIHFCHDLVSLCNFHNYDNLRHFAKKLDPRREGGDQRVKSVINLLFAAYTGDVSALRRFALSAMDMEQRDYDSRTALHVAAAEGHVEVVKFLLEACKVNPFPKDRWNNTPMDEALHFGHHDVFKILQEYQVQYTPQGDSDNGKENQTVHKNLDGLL

[4] = test system: Breast carcinoma Hs578T; test: Cell proliferation inhibitory test (Table 2); assay type: cell-based; conditions: Homo sapiens, Hs-578T; Breast carcinoma Hs578T (Table 2); read-out: IC50, cell strain Hs578T
Method: (§1) to that in the control group was calculated, and the IC50 (i.e., a compound concentration required for decreasing the surviving cell amount to 50% of that in the control group) was calculated.

[5] = test system: Breast carcinoma MDA-MB-231; test: Cell proliferation inhibitory test (Table 2); assay type: cell-based; conditions: Homo sapiens; Breast carcinoma MDA-MB-231 (Table 2); read-out: IC50, cell strain MDA-MB-231
Method: as §1

[6] = test system: Breast carcinoma MDA-MB-453; test: Cell proliferation inhibitory test (Table 2); assay type: cell-based; conditions: Homo sapiens; Breast carcinoma MDA-MB-453 (Table 2); read-out: IC50, cell strain MDA-MB-453
Method: as §1

[7] = test system: Breast carcinoma SK-BR-3; test: Cell proliferation inhibitory test (Table 2); assay type: cell-based; conditions: Homo sapiens; Breast carcinoma SK-BR-3 (Table 2); read-out: IC50, cell strain SK-BR-3
Method: as §1

[8] = test system: Breast carcinoma T-47D; test: Cell proliferation inhibitory test (Table 2); assay type: cell-based; conditions: Homo sapiens, T47D; Breast carcinoma T-47D (Table 2); read-out: IC50, cell strain T-47D
Method: as §1

[9] = test system: Colon carcinoma LS180; test: Cell proliferation inhibitory test (Table 2); assay type: cell-based; conditions: Homo sapiens; Colon carcinoma LS180 (Table 2); read-out: IC50, cell strain LS180
Method: as §1

[10] = test system: Colon carcinoma LoVo; test: Cell proliferation inhibitory test (Table 2); assay type: cell-based; conditions: Homo sapiens; Colon carcinoma LoVo (Table 2); read-out: IC50, cell strain LoVo
Method: as §1

[11] = test system: Colon carcinoma SW403; test: Cell proliferation inhibitory test (Table 2); assay type: cell-based; conditions: Homo sapiens, SW-403; Colon carcinoma SW403 (Table 2); read-out: IC50, cell strain SW403
Method: as §1

[12] = test system: Colon carcinoma SW48; test: Cell proliferation inhibitory test (Table 2); assay type: cell-based; conditions: Homo sapiens; Colon carcinoma SW48 (Table 2); read-out: IC50, cell strain SW48
Method: as §1

[13] = test system: Colon carcinoma SW620; test: Cell proliferation inhibitory test (Table 2); assay type: cell-based; conditions: Homo sapiens, SW-620; Colon carcinoma SW620 (Table 2); read-out: IC50, cell strain SW620
Method: as §1

[14] = test system: Colon carcinoma SW948; test: Cell proliferation inhibitory test (Table 2); assay type: cell-based; conditions: Homo sapiens; Colon carcinoma SW948 (Table 2); read-out: IC50, cell strain SW948
Method: as §1

[15] = test system: Colon carcinoma T84; test: Cell proliferation inhibitory test (Table 2); assay type: cell-based; conditions: Colon carcinoma T84 (Table 2); read-out: IC50, cell strain T84
Method: as §1

[16] = test system: Colon carcinoma WiDr; test: Cell proliferation inhibitory test (Table 2); assay type: cell-based; conditions: Homo sapiens; Colon carcinoma WiDr (Table 2); read-out: IC50, cell strain WiDr
Method: as §1

[17] = test system: Lung carcinoma A549; test: Cell proliferation inhibitory test (Table 2); assay type: cell-based; conditions: Homo sapiens; Lung carcinoma A549 (Table 2); read-out: IC50, cell strain A549
Method: as §1

[18] = test system: Throat cancer KB; test: Cell proliferation inhibitory test (Table 2); assay type: cell-based; conditions: Throat cancer KB (Table 2); read-out: IC50, cell strain KB
Method: as §1

[19] = test system: large intestinal cancer cell strains; test: Cell proliferation inhibitory tests, panel as a whole (selectivity in words); assay type: cell-based, human; conditions: large intestinal cancer cells / tumor cells
Method: A cellular suspension (50 μl, 2,000 cells) of the human colon carcinoma cells WiDr or human normal fetal pulmonary fibroblasts HEL was inoculated in a 96-well microplate, and incubated at 37° C. in a 5% carbonic acid gas incubator. The next day, a 2-fold serially diluted solution (50 μl) of each compound was added and incubated for 3 days. The culture broth containing the compound was removed, the cells were washed, MTT pigment solution was added, and the surviving cell number was determined (Tada et al., J. Immunol. Methods, 93, 157-165 (1986)). The cell amount in a control group not treated with the compound solution was used as a standard (100%). The ratio of the cell amount in each treated group to that in the control group was calculated, and the IC50 (i.e., a compound concentration required for decreasing the surviving cell amount to 50% of that in the control group) was calculated.
as §1

[20] = test system: human colon carcinoma cells WiDr transplanted to nude mice; test: In vivo colon carcinoma inhibitory activity, WiDr transplanted to nude mice (Test Example 3); design: species or system human cells in Balb/C female nude mice; conditions: oral; for Proliferation rate (tumor volume, treated/control): 3 times a day for 3 days, control = 100
Method: In vivo colon carcinoma inhibitory activity
The human colon carcinoma cells WiDr (5,000,000 cells) were subcutaneously transplanted to a thoracic part of each of Balb/C female nude mice (7 weeks of age). On the 5th day after the transplantation, the tumor size was measured. Five mice (per group) with almost the same tumor size were used for this experiment. Each of solutions of 2-amino-1-methylimidazole hydrochloride (50 mg/kg body weight, 100 mg/kg body weight and 200 mg/kg body weight) of the present invention in physiological saline was orally administered 3 times a day for 3 days. The day following the end of the administration, the tumor size was measured. The tumor volume was calculated from the following equation:
(§2) Tumor volume=(major axis)×(minor axis)×(minor axis)×(1/2)
(§3) The ratio of the tumor volume in the treated group to that in a control group to which physiological saline was administered was calculated as a proliferation rate.

[21] = test system: human colon carcinoma cells WiDr transplanted to nude mice; test: Activity of a compound having a protective group at the 2-amino group, WiDr transplanted to nude mice (Test Example 4); assay type: in vivo, human cells in Balb/C female nude mice; conditions: oral
Method: Activity of a compound having a protective group at the 2-amino group
The human colon carcinoma cells WiDr (5,000,000 cells) were subcutaneously transplanted to the thoracic parts of Balb/C female nude mice (7 weeks old). On the 5th day after the transplantation, the tumor cell size was measured. Five mice (per group) with almost the same tumor size were used for this experiment. A solution of 2-benzyloxycarbonylamino-1-methylimidazole hydrochloride (80 mg/kg body weight) of the present invention in physiological saline was orally administered 3 times a day for 3 days. The day following the end of the administration, the tumor cell size was measured. The tumor volume was calculated from the following equation:
as §2, §3

[22] = 3 days incubation, MTT (Table 1)
[23] = HEL, 3 days incubation, MTT (Table 1)

Compound: CCn1ccnc1N.Cl [2-Amino-1-ethylimidazole hydrochloride]
- IC50 [1, 22]: 4.4 µg/mL
- IC50 [2, 23]: > 80 µg/mL
- IC50 [3]: 50 mM

Compound: Cl.Cn1ccnc1N [2-Amino-1-methylimidazole hydrochloride]
- IC50 [1, 22]: 1.1 µg/mL
- IC50 [2, 23]: > 80 µg/mL
- IC50 [4]: 7 µg/mL
- IC50 [5]: > 80 µg/mL
- IC50 [6]: > 80 µg/mL
- IC50 [7]: > 80 µg/mL
- IC50 [8]: 13 µg/mL
- IC50 [9]: 6.3 µg/mL
- IC50 [10]: 7.6 µg/mL
- IC50 [11]: 5.2 µg/mL
- IC50 [12]: 8.6 µg/mL
- IC50 [13]: 11 µg/mL
- IC50 [14]: 3.9 µg/mL
- IC50 [15]: 2.8 µg/mL
- IC50 [16]: 1.1 µg/mL
- IC50 [17]: 20 µg/mL
- IC50 [18]: > 80 µg/mL
- Selective inhibition of proliferation (in words) [19]: selectively inhibits the proliferation of the large intestinal cancer cell strains
- Proliferation rate (tumor volume, treated/control) ([20]; 50 mg/kg): 76%
- Proliferation rate (tumor volume, treated/control) ([20]; 100 mg/kg): 64%
- Proliferation rate (tumor volume, treated/control) ([20]; 200 mg/kg): 49%
- Inhibition of proliferation of transplanted WiDr (in words) ([20]; nude mice): inhibited the proliferation of the human colon carcinoma cell strain WiDr transplanted to the nude mice in a concentration-dependent manner
- IC50 [3]: 30 mM

Compound: CN1CCN=C1N [2-Amino-1-methylimidazoline hydrochloride]
- IC50 [1, 22]: 1.4 µg/mL
- IC50 [2, 23]: > 80 µg/mL
- IC50 [3]: 100 mM

Compound: Nc1ncc[nH]1.O=S(=O)(O)O [2-Aminoimidazole sulfate]
- IC50 [1]: 12 µg/mL
- IC50 [2]: > 80 µg/mL

Compound: Cn1ccnc1NC(=O)OCc1ccccc1 [Example 4, 2-benzyloxycarbonylamino-1-methylimidazole hydrochloride]
- Proliferation rate (tumor volume, treated/control) ([21]; 80 mg/kg, 3 times a day for 3 days, control = 100): 70%
- Inhibition of proliferation of transplanted WiDr (in words) ([21]; nude mice): inhibited the proliferation of the human large intestinal cancer cell strain WiDr transplanted to nude mice

Now from value to compound, other results behind:

- IC50 [1, 22]: 4.2 µg/mL
Compound: C=CCn1ccnc1N.Cl [Example 1, 2-amino-1-(2-propenyl)imidazole hydrochloride]
- IC50 [2, 23]: > 80 µg/mL

- IC50 [3]: 40 mM
Compound: COC(=O)[C@@H](N)Cn1ccnc1N [Example 5, 3-(2-aminoimidazol-1-yl)-L-alanine methyl ester dihydrochloride]

- IC50 [1, 22]: 5 µg/mL
Compound: COC(=O)[C@@H](N)CCC(=O)Nc1nccn1C [Example 8, methyl (2S)-2-amino-4-[(1-methylimiazol-2-yl)carbamoyl]butyrate dihydrochloride]
- IC50 [2, 23]: > 80 µg/mL

- IC50 [1, 22]: 5 µg/mL (≈ 22.1 µM)
Compound: Cn1ccnc1NC(=O)CC[C@H](N)C(=O)O [Example 9, (2S)-2-amino-4-[(1-methylimidazol-2-yl)carbamoyl]butyric acid]
- IC50 [2, 23]: > 80 µg/mL

- IC50 [1, 22]: 11 µg/mL
Compound: COC(=O)[C@@H](N)CC(=O)Nc1nccn1C.Cl.Cl [Example 13, methyl (2S)-2-amino-3-[(1-methylimidazol-2-yl)carbamoyl]propionate dihydrochloride]
- IC50 [2, 23]: > 80 µg/mL

- IC50 [1, 22]: 1.4 µg/mL (≈ 7.56 µM)
Compound: Cn1ccnc1N=Cc1ccccc1 [Reference Example 7, N-(1-methylimidazol-2-yl)benzylideneamine]
- IC50 [2, 23]: > 80 µg/mL

- IC50 [1, 22]: 2.2 µg/mL
Compound: COc1ccc(C=Nc2nccn2C)cc1.Cl [Reference Example 9, N-(1-methylimidazol-2-yl)-4-methoxybenzylideneamine hydrochloride]
- IC50 [2, 23]: > 80 µg/mL
